Test results from ChEMBL document CHEMBL1154668, “Design and synthesis of 6-oxo-1,6-dihydropyridines as CDK5 inhibitors” (Bioorg Med Chem Lett, 2009).
pIC50: −log10 of the molar value.

Columns and labels:
[1] = molecular target: Cyclin-dependent kinase 5/CDK5 activator 1 (Homo sapiens, UniProt Q00535); experiment: Inhibition of human CDK5/p25 assessed as histone h1 phosphorylation in presence of ATP; format: protein-complex assay
Homo sapiens = species on record: Homo sapiens; experiment: Selectivity for human CDK5/p25 over human CDK2/cyclin E2
Brain = experiment: Drug uptake in rat brain at 2 mg/kg, iv; format: ADME, organism-based; set-up: dose 2 mg/kg, route intravenous; details: in vivo

Chain of Cyclin-dependent kinase 5/CDK5 activator 1 (Q00535 whole entry): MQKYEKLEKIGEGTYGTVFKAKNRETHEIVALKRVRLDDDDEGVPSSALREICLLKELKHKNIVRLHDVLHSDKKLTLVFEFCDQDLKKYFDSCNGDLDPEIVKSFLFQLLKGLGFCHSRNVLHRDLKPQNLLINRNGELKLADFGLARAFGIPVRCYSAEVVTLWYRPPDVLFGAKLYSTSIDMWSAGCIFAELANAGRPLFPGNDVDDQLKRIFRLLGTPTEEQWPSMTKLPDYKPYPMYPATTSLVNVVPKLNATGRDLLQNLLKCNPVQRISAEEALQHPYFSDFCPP
Chain of Cyclin-dependent kinase 5/CDK5 activator 1 (Q15078 whole entry, further chain): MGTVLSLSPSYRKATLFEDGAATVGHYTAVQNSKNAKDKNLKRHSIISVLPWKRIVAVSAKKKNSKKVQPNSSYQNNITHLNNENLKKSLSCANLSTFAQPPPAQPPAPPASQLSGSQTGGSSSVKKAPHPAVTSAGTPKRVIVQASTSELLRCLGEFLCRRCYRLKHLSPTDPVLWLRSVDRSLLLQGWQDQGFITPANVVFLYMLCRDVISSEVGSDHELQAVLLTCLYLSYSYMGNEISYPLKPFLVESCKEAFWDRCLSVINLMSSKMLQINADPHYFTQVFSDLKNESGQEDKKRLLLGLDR

SMILES | pIC50 [1] | fold change (FC) (Homo sapiens) | Drug uptake (Brain)
CCOC(=O)c1cc(-c2csc(-c3ccncc3)n2)c(=O)[nH]c1C | 6.88 |  | 
CC(C)c1[nH]c(=O)c(-c2csc(-c3ccncc3)n2)cc1C(=O)OCCN1CCCC1 | 6.95 |  | 
CC(C)c1[nH]c(=O)c(-c2csc(-c3ccncc3)n2)cc1C(=O)OC1CCCN(C)C1 (stereo not drawn) | 7.14 |  | 
CCN(CC)CC(C)OC(=O)c1cc(-c2csc(-c3ccncc3)n2)c(=O)[nH]c1C(C)C (stereo not drawn) | 7.44 |  | 
CCOC(=O)c1cc(-c2csc(-c3ccnc(N)c3)n2)c(=O)[nH]c1C | 7.70 |  | 
CCOC(=O)c1cc(-c2csc(-c3ccnc(NCCN(CC)CC)c3)n2)c(=O)[nH]c1C | 6.86 |  | 
CCCc1[nH]c(=O)c(-c2csc(-c3ccncc3)n2)cc1C(=O)OCC | 7.26 |  | 
CCOC(=O)c1cc(-c2csc(CS(=O)(=O)c3ccccc3)n2)c(=O)[nH]c1C | 8.48 | 70 | 44 ng/g
CCN(CC)CCCOC(=O)c1cc(-c2csc(-c3ccncc3)n2)c(=O)[nH]c1C(C)C | 7.33 |  | 
CCOC(=O)c1cc(-c2csc(CS(=O)(=O)c3ccccc3)n2)c(=O)[nH]c1COCc1ccccc1 | 8.28 | 70 | 
CCOC(=O)c1cc(-c2csc(-c3ccnc(NC)c3)n2)c(=O)[nH]c1C(C)C | 7.55 |  | 
CCOC(=O)c1cc(-c2csc(-c3ccnc(OC)c3)n2)c(=O)[nH]c1C(C)C | 6.17 |  | 
CCOC(=O)c1cc(-c2csc(-c3ccncc3)n2)c(=O)[nH]c1COCc1ccccc1 | 6.11 |  | 
CCOC(=O)c1cc(-c2csc(-c3ccncc3)n2)c(=O)[nH]c1C1CC1 | 6.70 |  | 
CCOC(=O)c1cc(-c2csc(-c3ccnc(NCC(C)C)c3)n2)c(=O)[nH]c1C | 7.85 |  | 
CCOC(=O)c1cc(-c2csc(-c3ccncc3)n2)c(=O)[nH]c1C(F)(F)F | 4.94 |  | 
CCOC(=O)c1cc(-c2csc(-c3ccncc3)n2)c(=O)[nH]c1C(C)C | 6.80 |  | 4640 ng/g
CC(C)c1[nH]c(=O)c(-c2csc(-c3ccncc3)n2)cc1C(=O)OC1CCN(C)CC1 | 6.19 |  | 
CC(C)c1[nH]c(=O)c(-c2csc(-c3ccncc3)n2)cc1C(=O)OCCc1ccccc1 | 6.92 |  | 
CCCc1[nH]c(=O)c(-c2csc(CS(=O)(=O)c3ccccc3)n2)cc1C(=O)OCC | 8.85 | 70 | 
CCOC(=O)c1cc(-c2csc(-c3ccnc(Cl)c3)n2)c(=O)[nH]c1C | 6.80 |  | 
CCN(CC)CCOC(=O)c1cc(-c2csc(-c3ccncc3)n2)c(=O)[nH]c1C(C)C | 7.28 |  | 
CCOC(=O)c1cc(-c2csc(-c3ccncc3)n2)c(=O)[nH]c1CC | 8.39 |  | 
